As usually defined, the IC50 is the concentration needed to halve the response being measured. Low values mean inhibition by little substance, high ones a need for much substance.

Here are results for 24 compounds from US8003785B2 (Takeda Pharmaceutical Company Limited, priority 2008, dated 2011).

The test addresses T1, PLK1 (Homo sapiens, UniProt P53350).
T1 construct: Full-length, active GST-PLK1 is purified from Sf9 insect cells; made in house; host or cells: Sf9 insect cells
In words: Biochemical Characterization Assay: HTRF kinase assay, GST-PLK1 phosphorylation of GST-p53. The note with it: GST-PLK1, GST-p53 substrate. As for the experimental part: Biochemical Characterization Assay
Full-length, active GST-PLK1 is purified from Sf9 insect cells, and full-length GST-p53 is purified from E. coli. Anti-phospho p53 antibody is from Cell Signaling Technology. Europium-conjugated anti-rabbit antibody is from PerkinElmer Life and Analytical Sciences. APC-conjugated anti-GST antibody is from Prozyme.
Six microliters of GST-PLK1 (3 ug/mL) in Kinase Assay Buffer are then added and the solution incubated at 37° C. for 35 minutes. Six microliters of solution containing 43 mM EDTA to stop the reaction and a 1:600 dilution of anti-phospho-p53 antibody in 20 mM HEPES pH 7, 50 mM NaCl, and 0.5 mg/mL BSA (Antibody Binding Buffer) are added and the solution incubated at 37° C. for 30 minutes. […] The HTRF signal is read on an Envision reader from PerkinElmer Life and Analytical Sciences.

T1 sequence (P53350 whole entry): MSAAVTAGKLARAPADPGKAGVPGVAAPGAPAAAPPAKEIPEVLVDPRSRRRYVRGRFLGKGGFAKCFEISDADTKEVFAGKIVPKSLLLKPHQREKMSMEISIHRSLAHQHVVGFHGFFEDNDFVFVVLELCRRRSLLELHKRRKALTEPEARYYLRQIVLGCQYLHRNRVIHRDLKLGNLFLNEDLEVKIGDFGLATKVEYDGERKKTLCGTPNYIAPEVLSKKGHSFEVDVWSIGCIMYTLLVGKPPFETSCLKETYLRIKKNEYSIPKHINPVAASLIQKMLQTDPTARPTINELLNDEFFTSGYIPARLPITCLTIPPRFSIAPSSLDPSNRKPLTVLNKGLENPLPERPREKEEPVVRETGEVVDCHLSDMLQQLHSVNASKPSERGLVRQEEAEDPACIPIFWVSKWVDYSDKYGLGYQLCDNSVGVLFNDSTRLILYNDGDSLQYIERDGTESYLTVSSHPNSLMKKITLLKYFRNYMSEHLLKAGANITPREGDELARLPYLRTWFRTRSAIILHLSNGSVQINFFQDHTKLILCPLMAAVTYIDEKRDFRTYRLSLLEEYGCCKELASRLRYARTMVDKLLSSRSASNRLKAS

As to `CN1C(=O)C(F)(F)CN(C2CCCC2)c2nc(Nc3ccc(C(=O)NC4CCN(C(=O)OC(C)(C)C)CC4)cc3C(F)(F)F)ncc21` [Example I-211, 4-[4-(9-cyclopentyl-7,7-difluoro-5-methyl-6-oxo-6,7,8,9-tetrahydro-5H-pyrimido[4,5-b][1,4]diazepin-2-ylamino)-3-trifluoromethyl-benzoylamino]-piperidine-1-carboxylic acid tert-butyl ester], the IC50 was in the range of 0.051 to 0.5 µM. In the case of `CCOc1cc(C(=O)NC2CCN(CC)CC2)ccc1Nc1ncc2c(n1)N(C1CCCC1)CC(F)(F)C(=O)N2C` [Example I-216, 4-(9-cyclopentyl-7,7-difluoro-5-methyl-6-oxo-6,7,8,9-tetrahydro-5H-pyrimido[4,5-b][1,4]diazepin-2-ylamino)-3-ethoxy-N-(1-ethyl-piperidin-4-yl)-benzamide], the IC50 is 0.001 to 0.05 µM. `COc1cc(C(=O)Nc2ccccc2)ccc1Nc1ncc2c(n1)N(C1CCCC1)CC(F)(F)C(=O)N2C` [Example I-38, 4-(9-cyclopentyl-7,7-difluoro-5-methyl-6-oxo-6,7,8,9-tetrahydro-5H-pyrimido[4,5-b][1,4]diazepin-2-ylamino)-3-methoxy-N-phenyl-benzamide]: under “ATP”, the IC50 lay within 0.051 to 0.5 µM. In turn, `COc1cc(C(=O)N[C@H]2CC[C@@H](N3CCN(CC4CC4)CC3)CC2)ccc1Nc1ncc2c(n1)N(C(C)C)CC(F)(F)C(=O)N2C` [Example I-301, N-[cis-4-(4-cyclopropylmethyl-piperazin-1-yl)-cyclohexyl]-4-(7,7-difluoro-9-isopropyl-5-methyl-6-oxo-6,7,8,9-tetrahydro-5H-pyrimido[4,5-b][1,4]diazepin-2-ylamino)-3-methoxy-benzamide] yielded a half-inhibitory concentration (IC50) of 0.001 to 0.05 µM. `CN1C(=O)C(F)(F)CN(C2CCC2)c2nc(Nc3ccc(C(=O)O)cc3)ncc21` [Example I-11, 4-(9-cyclobutyl-7,7-difluoro-5-methyl-6-oxo-6,7,8,9-tetrahydro-5H-pyrimido[4,5-b][1,4]diazepin-2-ylamino)-benzoic acid] showed a half-maximal inhibitory concentration (IC50) (ATP) of 0.051 to 0.5 µM. `COc1cc(C(N)=O)ccc1Nc1ncc2c(n1)N(C1CCCCC1)CC(F)(F)C(=O)N2C` [Example I-248, 4-(9-cyclohexyl-7,7-difluoro-5-methyl-6-oxo-6,7,8,9-tetrahydro-5H-pyrimido[4,5-b][1,4]diazepin-2-ylamino)-3-methoxy-benzamide] showed an IC50 of 0.001 to 0.05 µM. On to `COc1cc(C(=O)N[C@@H]2CCNC(=O)C2)ccc1Nc1ncc2c(n1)N(C1CCCC1)CC(F)(F)C(=O)N2C` [Example I-89, R-4-(9-cyclopentyl-7,7-difluoro-5-methyl-6-oxo-6,7,8,9-tetrahydro-5H-pyrimido[4,5-b][1,4]diazepin-2-ylamino)-3-methoxy-N-(2-oxo-piperidin-4-yl)-benzamide], for which the IC50 (ATP) fell in the range of 0.001 to 0.05 µM.

For the compound `CN1C(=O)C(F)(F)CN(C2CCC2)c2nc(Nc3ccc(C(=O)NC4CCOCC4)cc3)ncc21` [Example I-17, 4-(9-cyclobutyl-7,7-difluoro-5-methyl-6-oxo-6,7,8,9-tetrahydro-5H-pyrimido[4,5-b][1,4]diazepin-2-ylamino)-N-(tetrahydro-pyran-4-yl)-benzamide], the IC50 (ATP) lay in the range of 0.001 to 0.05 µM.

The compound `CCc1cc(C(=O)NC2CCN(C)CC2)ccc1Nc1ncc2c(n1)N(C1CCCC1)CC(F)(F)C(=O)N2C` [Example I-195, 4-(9-cyclopentyl-7,7-difluoro-5-methyl-6-oxo-6,7,8,9-tetrahydro-5H-pyrimido[4,5-b][1,4]diazepin-2-ylamino)-3-ethyl-N-(1-methyl-piperidin-4-yl)-benzamide] gave an IC50 of 0.001 to 0.05 µM. Under “ATP”, `COc1cc(C(=O)NCc2cc(Cl)cc(Cl)c2)ccc1Nc1ncc2c(n1)N(C1CCCC1)CC(F)(F)C(=O)N2C` [Example I-42, 4-(9-cyclopentyl-7,7-difluoro-5-methyl-6-oxo-6,7,8,9-tetrahydro-5H-pyrimido[4,5-b][1,4]diazepin-2-ylamino)-N-(3,5-dichloro-benzyl)-3-methoxy-benzamide] came in with an IC50 of 0.001 to 0.05 µM.

`CCOc1cc(C(=O)NC2CCNCC2)ccc1Nc1ncc2c(n1)N(C1CCCC1)CC(F)(F)C(=O)N2C` [Example I-222, 4-(9-cyclopentyl-7,7-difluoro-5-methyl-6-oxo-6,7,8,9-tetrahydro-5H-pyrimido[4,5-b][1,4]diazepin-2-ylamino)-3-ethoxy-N-piperidin-4-yl-benzamide] displayed an IC50 of 0.001 to 0.05 µM. Where the note is “ATP”, `COc1cc(C(=O)NC2CCN(C)CC2)ccc1Nc1ncc2c(n1)N(C1CCCC1)CC(F)(F)C(=O)N2CC(F)(F)F` [Example I-150, 4-[9-cyclopentyl-7,7-difluoro-6-oxo-5-(2,2,2-trifluoro-ethyl)-6,7,8,9-tetrahydro-5H-pyrimido[4,5-b][1,4]diazepin-2-ylamino]-3-methoxy-N-(1-methyl-piperidin-4-yl)-benzamide] yielded an IC50 of 0.5 to 5 µM. Take `CNC(=O)c1ccc(Nc2ncc3c(n2)N(C2CCCC2)CC(F)(F)C(=O)N3C)c(C(F)(F)F)c1` [Example I-210, 4-(9-cyclopentyl-7,7-difluoro-5-methyl-6-oxo-6,7,8,9-tetrahydro-5H-pyrimido[4,5-b][1,4]diazepin-2-ylamino)-N-methyl-3-trifluoromethyl-benzamide]: the IC50 was 0.051 to 0.5 µM.

`COCCNC(=O)c1ccc(Nc2ncc3c(n2)N(C2CCCC2)CC(F)(F)C(=O)N3C)c(OC)c1` [Example I-28, 4-(9-cyclopentyl-7,7-difluoro-5-methyl-6-oxo-6,7,8,9-tetrahydro-5H-pyrimido[4,5-b][1,4]diazepin-2-ylamino)-3-methoxy-N-(2-methoxy-ethyl)-benzamide]: the IC50 (ATP) is 0.001 to 0.05 µM. Consider `COc1cc(C(=O)NC2CCNCC2)c(F)cc1Nc1ncc2c(n1)N(C1CCCC1)CC(F)(F)C(=O)N2C` [Example I-178, 4-(9-cyclopentyl-7,7-difluoro-5-methyl-6-oxo-6,7,8,9-tetrahydro-5H-pyrimido[4,5-b][1,4]diazepin-2-ylamino)-2-fluoro-5-methoxy-N-piperidin-4-yl-benzamide], for which the IC50 was 0.001 to 0.05 µM. On the same count and under the same terms, as for `CNC(=O)c1ccc(Nc2ncc3c(n2)N(CCc2cccs2)CC(F)(F)C(=O)N3C)c(OC)c1` [Example I-272, 4-[7,7-difluoro-5-methyl-6-oxo-9-(2-thiophen-2-yl-ethyl)-6,7,8,9-tetrahydro-5H-pyrimido[4,5-b][1,4]diazepin-2-ylamino]-3-methoxy-N-methyl-benzamide], the figure is 0.001 to 0.05 µM. Under “ATP”, `CCN1C(=O)C(F)(F)CN(C2CCCC2)c2nc(Nc3ccc(C(=O)NC)cc3OC)ncc21` [Example I-158, 4-(9-cyclopentyl-5-ethyl-7,7-difluoro-6-oxo-6,7,8,9-tetrahydro-5H-pyrimido[4,5-b][1,4]diazepin-2-ylamino)-3-methoxy-N-methyl-benzamide] displayed an IC50 of 0.5 to 5 µM. For the compound `COc1cc(C(=O)N[C@@H]2CNC[C@H]2O)ccc1Nc1ncc2c(n1)N(C1CCCC1)CC(F)(F)C(=O)N2C` [Example I-104, 4-(9-cyclopentyl-7,7-difluoro-5-methyl-6-oxo-6,7,8,9-tetrahydro-5H-pyrimido[4,5-b][1,4]diazepin-2-ylamino)-N-((3R,4R)-4-hydroxy-pyrrolidin-3-yl)-3-methoxy-benzamide], the IC50 (ATP) was in the range of 0.001 to 0.05 µM. The same measure, in the same setting: as for `COc1cc(C(=O)N2CCOCC2)ccc1Nc1ncc2c(n1)N(C1CCCC1)CC(F)(F)C(=O)N2C` [Example I-127, 9-cyclopentyl-7,7-difluoro-2-[2-methoxy-4-(morpholine-4-carbonyl)-phenylamino]-5-methyl-5,7,8,9-tetrahydro-pyrimido[4,5-b][1,4]diazepin-6-one], the figure is 0.001 to 0.05 µM; as for `COc1cc(C(=O)NCC(C)(C)CN(C)C)ccc1Nc1ncc2c(n1)N(C1CCCC1)CC(F)(F)C(=O)N2C` [Example I-60, 4-(9-cyclopentyl-7,7-difluoro-5-methyl-6-oxo-6,7,8,9-tetrahydro-5H-pyrimido[4,5-b][1,4]diazepin-2-ylamino)-N-(3-dimethylamino-2,2-dimethyl-propyl)-3-methoxy-benzamide], 0.001 to 0.05 µM.

`COc1cc(C(N)=O)ccc1Nc1ncc2c(n1)N(C1CCCC1)CC(F)(F)C(=O)N2` [Example I-152, 4-(9-cyclopentyl-7,7-difluoro-6-oxo-6,7,8,9-tetrahydro-5H-pyrimido[4,5-b][1,4]diazepin-2-ylamino)-3-methoxy-benzamide] showed an IC50 (ATP) of 0.5 to 5 µM. `CCc1cc(C(=O)NC2CCNCC2)ccc1Nc1ncc2c(n1)N(C1CCCC1)CC(F)(F)C(=O)N2C` [Example I-202, 4-(9-cyclopentyl-7,7-difluoro-5-methyl-6-oxo-6,7,8,9-tetrahydro-5H-pyrimido[4,5-b][1,4]diazepin-2-ylamino)-3-ethyl-N-piperidin-4-yl-benzamide] yielded an IC50 of 0.001 to 0.05 µM. Where the note is “ATP”, `COc1cc(C(=O)NCCCN2CCN(CCO)CC2)ccc1Nc1ncc2c(n1)N(C1CCCC1)CC(F)(F)C(=O)N2C` [Example I-96, 4-(9-cyclopentyl-7,7-difluoro-5-methyl-6-oxo-6,7,8,9-tetrahydro-5H-pyrimido[4,5-b][1,4]diazepin-2-ylamino)-N-{3-[4-(2-hydroxy-ethyl)-piperazin-1-yl]-propyl}-3-methoxy-benzamide] displayed an IC50 of 0.001 to 0.05 µM. As to `COc1cc(C(=O)NC2CCNCC2)ccc1Nc1ncc2c(n1)N(C1CCCCC1)CC(F)(F)C(=O)N2C` [Example I-251, 4-(9-cyclohexyl-7,7-difluoro-5-methyl-6-oxo-6,7,8,9-tetrahydro-5H-pyrimido[4,5-b][1,4]diazepin-2-ylamino)-3-methoxy-N-piperidin-4-yl-benzamide], the IC50 fell in the range of 0.001 to 0.05 µM.
